US11649238B2, “Substituted pyrazolo[1,5-a]pyrimidines as PI4K inhibitors” (GLAXOSMITHKLINE INTELLECTUAL PROPERTY DEVELOPMENT LIMITED, priority 2018, dated 2023)

Biological target: T1, human PI4KIII-beta 13-828 (D316-330) (Homo sapiens, UniProt Q9UBF8)
T1 construct: human PI4KIII-beta 13-828 (D316-330)
Experiment: PI4 KB Activity Assay (ADP-GLO Kinase assay)
Format: biochemical
Details: 1 mM ATP, 60 μM phosphatidylinositol, 3 hours at room temperature; read-out: mean pIC50 (converted)
Description: The in vitro inhibition of human PI4KIII-beta 13-828 (D316-330) activity was determined by using the ADP-GLO Kinase assay kit from Promega. Inhibitors were dissolved in 100% DMSO at a concentration of 1 mM. Dilutions were prepared in 100% DMSO using a 1 in 3 serial step dilution. A 60 nL stamp from an 11-point titration was transferred to a white low volume 384 well Greiner assay plate ensuring a final DMSO concentration of 1% across the plate and a top final concentration of inhibitor of 10 μM. The PI4KIII-beta assay contained 25 mM Hepes pH 7.5 (NaOH), 10 mM MgCl2, 0.5 mM EGTA, 0.1% Triton X-100, 2 mM TCEP, and 0.1 mg/ml BSA, 1 mM ATP, 60 μM phosphatidylinositol, and 1.5 nM human PI4K-beta 13-828 (D316-330) in a total volume of 6 μL. The assay was initiated with the addition of enzyme, covered, and incubated at room temperature for 3 hours. The assays were stopped with the addition of 6 μl ADP-GLO Reagent containing 0.1% CHAPS to deplete the unconsumed ATP. The plates were incubated at room temperature for 60 min and then 12 μl of the Kinase Detection Reagent containing 0.1% CHAPS was added to convert ADP to ATP and introduce luciferase and luciferin. After 40 min incubation at room temperature the luminescent signal was read on a BMG Labtech PHERAstar FS with the following settings; Gain 3600, Focal height 13.7 mm, measurement interval time 1 s, Settling time 0.2 s. The inhibitory effect of the PI4K-beta activity of the compounds was evaluated by the IC50 of the response relative to the high, no compound, and low, no enzyme, controls by fitting to the four parameter dose response question.

T1 sequence (Q9UBF8 1-801 isoform Q9UBF8-2): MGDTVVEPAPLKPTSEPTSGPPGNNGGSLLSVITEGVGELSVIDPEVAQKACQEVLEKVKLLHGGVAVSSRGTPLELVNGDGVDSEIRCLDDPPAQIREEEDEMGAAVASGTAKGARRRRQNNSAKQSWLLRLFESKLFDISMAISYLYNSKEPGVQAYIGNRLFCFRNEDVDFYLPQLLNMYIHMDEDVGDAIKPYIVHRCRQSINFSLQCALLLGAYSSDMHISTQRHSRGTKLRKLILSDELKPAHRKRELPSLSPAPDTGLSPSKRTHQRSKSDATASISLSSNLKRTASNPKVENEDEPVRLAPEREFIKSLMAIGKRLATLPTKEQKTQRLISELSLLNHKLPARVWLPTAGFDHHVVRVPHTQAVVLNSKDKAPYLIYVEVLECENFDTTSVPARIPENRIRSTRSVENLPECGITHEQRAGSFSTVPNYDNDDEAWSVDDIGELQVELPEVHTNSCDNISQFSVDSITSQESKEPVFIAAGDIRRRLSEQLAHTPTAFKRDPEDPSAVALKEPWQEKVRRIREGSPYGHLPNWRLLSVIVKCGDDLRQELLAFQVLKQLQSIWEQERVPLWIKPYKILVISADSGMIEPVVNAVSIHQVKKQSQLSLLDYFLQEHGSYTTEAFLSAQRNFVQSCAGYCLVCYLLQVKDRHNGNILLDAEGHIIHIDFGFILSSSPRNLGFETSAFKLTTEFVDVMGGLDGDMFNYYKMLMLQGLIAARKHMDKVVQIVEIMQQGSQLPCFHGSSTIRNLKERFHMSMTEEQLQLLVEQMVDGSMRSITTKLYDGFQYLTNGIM

| SMILES | IC50 |
| --- | --- |
| Cc1ccc(-c2c(C)nn3c(NCc4cccc(-n5cccn5)c4)cc(C(C)(C)O)nc23)cc1C(=O)N(C)CCCO [Compound 34] | ≤ 3.98 nM |
| CCN(CCO)C(=O)c1cc(-c2c(C)nn3c(NCc4cccc(-c5nccn5C)c4)cc(C(C)O)nc23)ccc1Cl (stereo not drawn) [Compound 15, 2-chloro-N-ethyl-N-(2-hydroxyethyl)-5-(5-(1-hydroxyethyl)-2-methyl-7-((3-(1-methyl-1H-imidazol-2-yl)benzyl)amino)pyrazolo[1,5-a]pyrimidin-3-yl)benzamide] | ≤ 3.98 nM |
| CCC(O)c1cc(NCc2cccc(-c3nccn3C)c2)n2nc(C)c(-c3ccc(C)c(C(=O)N(C)CCCO)c3)c2n1 (single isomer, unassigned) [Compound 69, N-(3-Hydroxypropyl)-5-(5-(1-hydroxypropyl)-2-methyl-7-((3-(1-methyl-1H-imidazol-2-yl)benzyl)amino)pyrazolo[1,5-a]pyrimidin-3-yl)-N,2-dimethylbenzamide] | ≤ 3.98 nM |
| COc1ccc(-c2c(C)nn3c(NCc4cccc(-c5nccn5C)c4)cc(C(C)(C)O)nc23)cc1C(=O)N1CCCC1CO (stereo not drawn) [Compound 44] | ≤ 3.98 nM |
| Cc1nn2c(NCc3cccc(-c4nccn4C)c3)cc(C(C)(C)O)nc2c1-c1ccc(Cl)c(C(=O)N2CC[C@H](O)C2)c1 [Compound 18] | ≤ 3.98 nM |
| Cc1nn2c(NCc3cccc(-c4nccn4C)c3)cc(C(C)O)nc2c1-c1ccc(Cl)c(C(=O)N2CC[C@H](O)C2)c1 (stereo partly drawn) [Compound 14] | ≤ 3.98 nM |
| COc1ccc(-c2c(C)nn3c(NCc4cccc(-n5cccn5)c4)cc(C(C)(C)O)nc23)cc1C(=O)N1CC[C@H](O)C1 [Compound 52] | ≤ 3.98 nM |
| COc1ccc(-c2c(C)nn3c(NCc4cccc(-c5nccn5C)c4)cc(C(C)(C)O)nc23)cc1C(=O)N(C)[C@@H](C)CO [Compound 20, (S)—N-(1-hydroxypropan-2-yl)-5-(5-(2-hydroxypropan-2-yl)-2-methyl-7-((3-(1-methyl-1H-imidazol-2-yl)benzyl)amino)pyrazolo[1,5-a]pyrimidin-3-yl)-2-methoxy-N-methylbenzamide] | ≤ 3.98 nM |
| COc1ccc(-c2c(C)nn3c(NCc4cccc(-c5nccn5C)c4)cc(C(C)(C)O)nc23)cc1C(=O)N(C)CC(C)O (stereo not drawn) [Compound 82, 5-(5-(2-Hydroxypropan-2-yl)-2-methyl-7-((3-(1-methyl-1H-imidazol-2-yl)benzyl)amino)pyrazolo[1,5-a]pyrimidin-3-yl)-N-(2-hydroxypropyl)-2-methoxy-N-methylbenzamide] | ≤ 3.98 nM |
| Cc1nn2c(NCc3cccc(-n4cccn4)c3)cc(C(C)(C)O)nc2c1-c1ccc(Cl)c(C(=O)N(C)CCO)c1 [Compound 48] | ≤ 3.98 nM |
| Cc1nn2c(NCc3cccc(-c4nccn4C)c3)cc(C(C)(C)O)nc2c1-c1ccc(Cl)c(C(=O)N(C)CCO)c1 [Compound 37, 2-Chloro-N-(2-hydroxyethyl)-5-(5-(2-hydroxypropan-2-yl)-2-methyl-7-((3-(1-methyl-1H-imidazol-2-yl)benzyl)amino)pyrazolo[1,5-a]pyrimidin-3-yl)-N-methylbenzamide] | ≤ 3.98 nM |
| COc1ccc(-c2c(C)nn3c(NCc4cccc(-c5nccn5C)c4)cc(C(C)(C)O)nc23)cc1S(=O)(=O)CCO [Compound 6, 2-(3-(3-((2-Hydroxyethyl)sulfonyl)-4-methoxyphenyl)-2-methyl-7-((3-(1-methyl-1H-imidazol-2-yl)benzyl)amino)pyrazolo[1,5-a]pyrimidin-5-yl)propan-2-ol] | ≤ 3.98 nM |

Next, values leading:

| IC50 | SMILES |
| --- | --- |
| ≤ 3.98 nM | Cc1nn2c(NCc3cccc(-c4nccn4C)c3)cc(C(C)(C)O)nc2c1-c1ccc(Cl)c(C(=O)N(C)CCCO)c1 [Compound 7, 2-Chloro-5-(5-(2-hydroxypropan-2-yl)-2-methyl-7-((3-(1-methyl-1H-imidazol-2-yl)benzyl)amino)pyrazolo[1,5-a]pyrimidin-3-yl)-N-(3-hydroxypropyl)-N-methylbenzamide] |
| ≤ 3.98 nM | CCC(O)c1cc(NCc2cccc(-c3nccn3C)c2)n2nc(C)c(-c3ccc(OC)c(S(=O)(=O)CCO)c3)c2n1 (stereo not drawn) [Compound 3] |
| ≤ 3.98 nM | COc1ccc(-c2c(C)nn3c(NCc4cccc(-c5nccn5C)c4)cc(C(C)(C)CO)nc23)cc1S(=O)(=O)CCO [Compound 56, 2-(3-(3-((2-Hydroxyethyl)sulfonyl)-4-methoxyphenyl)-2-methyl-7-((3-(1-methyl-1H-imidazol-2-yl)benzyl)amino)pyrazolo[1,5-a]pyrimidin-5-yl)-2-methylpropan-1-ol] |
| ≤ 3.98 nM | COc1ccc(-c2c(C)nn3c(NCc4cccc(-c5nccn5C)c4)cc(C(C)CO)nc23)cc1S(=O)(=O)CCO (stereo not drawn) [Compound 53, 2-(3-(3-((2-Hydroxyethyl)sulfonyl)-4-methoxyphenyl)-2-methyl-7-((3-(1-methyl-1H-imidazol-2-yl)benzyl)amino)pyrazolo[1,5-a]pyrimidin-5-yl)propan-1-ol] |
| ≤ 3.98 nM | COc1ccc(-c2c(C)nn3c(NCc4cccc(-n5cccn5)c4)cc(C(C)(C)O)nc23)cc1C(=O)N(C)CCCO [Compound 33] |
| ≤ 3.98 nM | CCC(CO)c1cc(NCc2cccc(-c3nccn3C)c2)n2nc(C)c(-c3ccc(C)c(C(=O)N(C)CCCO)c3)c2n1 (single isomer, unassigned) [Compound 66, 5-(5-(1-Hydroxybutan-2-yl)-2-methyl-7-((3-(1-methyl-1H-imidazol-2-yl)benzyl)amino)pyrazolo[1,5-a]pyrimidin-3-yl)-N-(3-hydroxypropyl)-N,2-dimethylbenzamide] |
| ≤ 3.98 nM | Cc1nn2c(NCc3cccc(-c4nccn4C)c3)cc(C(C)O)nc2c1-c1ccc(Cl)c(C(=O)N(C)CCCO)c1 (single isomer, unassigned) [Compound 57, 2-Chloro-5-(5-(1-hydroxyethyl)-2-methyl-7-((3-(1-methyl-1H-imidazol-2-yl)benzyl)amino)pyrazolo[1,5-a]pyrimidin-3-yl)-N-(3-hydroxypropyl)-N-methylbenzamide] |
| ≤ 3.98 nM | Cc1nn2c(NCc3cccc(-c4nccn4C)c3)cc(C(C)(C)O)nc2c1-c1ccc(Cl)c(C(=O)N2CCC[C@@H]2CO)c1 [Compound 24] |
| ≤ 3.98 nM | Cc1ccc(-c2c(C)nn3c(NCc4cccc(-c5nccn5C)c4)cc(C(C)(C)O)nc23)cc1C(=O)N1CC[C@H](O)C1 [Compound 29, (S)-(5-(5-(2-hydroxypropan-2-yl)-2-methyl-7-((3-(1-methyl-1H-imidazol-2-yl)benzyl)amino)pyrazolo[1,5-a]pyrimidin-3-yl)-2-methylphenyl)(3-hydroxypyrrolidin-1-yl)methanone] |
| ≤ 3.98 nM | COc1ccc(-c2c(C)nn3c(NCc4cccc(-c5nccn5C)c4)cc(C(O)C(C)C)nc23)cc1S(=O)(=O)CCO (stereo not drawn) [Compound 5] |
| ≤ 3.98 nM | Cc1ccc(-c2c(C)nn3c(NCc4cccc(-c5nccn5C)c4)cc(C(C)(C)O)nc23)cc1C(=O)N(C)CC(C)O (single isomer, unassigned) [Compound 62, 5-(5-(2-Hydroxypropan-2-yl)-2-methyl-7-((3-(1-methyl-1H-imidazol-2-yl)benzyl)amino)pyrazolo[1,5-a]pyrimidin-3-yl)-N-(2-hydroxypropyl)-N,2-dimethylbenzamide] |
| ≤ 3.98 nM | COc1ccc(-c2c(C)nn3c(NCc4cccc(-n5cccn5)c4)cc(C(C)(C)O)nc23)cc1C(=O)N1CCC(C)(O)C1 (stereo not drawn) [Compound 51] |
| ≤ 3.98 nM | Cc1ccc(-c2c(C)nn3c(NCc4cccc(-c5nccn5C)c4)cc(C(C)(C)O)nc23)cc1C(=O)N(C)CC(C)O (stereo not drawn) [Compound 61] |
| ≤ 3.98 nM | Cc1ccc(-c2c(C)nn3c(NCc4cccc(-c5nccn5C)c4)cc(C(C)(C)O)nc23)cc1C(=O)N(C)C1CCOCC1 [Compound 45] |
| ≤ 3.98 nM | COc1ccc(-c2c(C)nn3c(NCc4cccc(-c5nccn5C)c4)cc(C(C)(C)O)nc23)cc1C(=O)N(C)CC(C)O (single isomer, unassigned) [Compound 83, 5-(5-(2-Hydroxypropan-2-yl)-2-methyl-7-((3-(1-methyl-1H-imidazol-2-yl)benzyl)amino)pyrazolo[1,5-a]pyrimidin-3-yl)-N-(2-hydroxypropyl)-2-methoxy-N-methylbenzamide] |
| ≤ 3.98 nM | COc1ccc(-c2c(C)nn3c(NCc4cccc(-c5nccn5C)c4)cc(C(C)O)nc23)cc1C(=O)N(C)CCCO (stereo not drawn) [Compound 9, 5-(5-(1-Hydroxyethyl)-2-methyl-7-((3-(1-methyl-1H-imidazol-2-yl)benzyl)amino)pyrazolo[1,5-a]pyrimidin-3-yl)-N-(3-hydroxypropyl)-2-methoxy-N-methylbenzamide] |
| ≤ 3.98 nM | COc1ccc(-c2c(C)nn3c(NCc4cccc(-n5cccn5)c4)cc(C(C)(C)O)nc23)cc1C(=O)N(C)CCO [Compound 46] |
| ≤ 3.98 nM | Cc1ccc(-c2c(C)nn3c(NCc4cccc(-c5nccn5C)c4)cc(C(C)(C)CO)nc23)cc1C(=O)N(C)CCCO [Compound 55, 5-(5-(1-Hydroxy-2-methylpropan-2-yl)-2-methyl-7-((3-(1-methyl-1H-imidazol-2-yl)benzyl)amino)pyrazolo[1,5-a]pyrimidin-3-yl)-N-(3-hydroxypropyl)-N,2-dimethylbenzamide] |
